“Also recorded” adds a separate entry of the source.
System: Multicellular Tumor Spheroids (MTS)
Assay: Fluorescent cell binding assay: Cy3 Annexin V binding to drug treated cells, Western blotting, normalized to actin (apoptosis assay)
Format: cell-based
Procedure: Doxorubicin is an anti-cancer drugs aimed to inhibit uncontrolled cell proliferation by inducing apoptosis in cells. Multicellular Tumor Spheroids were treated with Doxorubicin and incubated with Cy 3 Annexin V. The cells are lysed and the proteins are separated and transferred to a membrane. Cy 3 Annexin V can be detected simultaneously with actin targeted by ECL Plex Cy5Western Blotting. The amount of Annexin V binding to the cells upon treatment can easily be quantified after normalization to the house-keeping protein actin.
Cancer cells, Multicellular Tumor Spheroids (MTS) (Sanitini et al. Critical Rev Oncol Hematol 2001, 36:75-87) were treated for 3 days with […] different concentrations (1 μM, 5 μM and 10 μM) of the cancer drug Doxorubicin. To determine the level of drug induced apoptosis the cells were incubated with Cy3 conjugated Annexin V. Non-bound Cy 3 Annexin V was washed away with PBS followed by cell lysis using mammalian cell protein extraction buffer (GE Healthcare). […]
The signals from bound Cy 3 Annexin V and Cy 5 actin are detected simultaneously by scanning the membrane in Cy3 and Cy5 channels using a Typhoon Imager (GE Healthcare, FIG. 2a). The image was analysed with Image Quant TL software (GE Healthcare). […] In this way any uneven sample loading is corrected for and very accurate quantification of the cells capacity to bind Annexin V is determined. […]

What does the source list for `COc1cccc2c1C(=O)c1c(O)c3c(c(O)c1C2=O)C[C@@](O)(C(=O)CO)C[C@@H]3O[C@H]1C[C@H](N)[C@H](O)[C@H](C)O1` [Doxorubicin]?
Annexin V binding to cells (signal ratio Cy3 Annexin V : Cy5 actin), indicating apoptosis (cancer cells (MTS) treated for 3 days with 1 μM, 5 μM and 10 μM, compared against control (no treatment)): dose dependent binding of Annexin V to treated cells; also recorded: dose dependent Annexin V binding to cells up to 5 μM; Annexin V binding to cells (signal ratio Cy3 Annexin V : Cy5 actin) (treatment with 10 μM for 3 days, MTS cells): decrease of the Annexin V binding
